One data set addresses T1, DβH (Homo sapiens, UniProt P09172).
T1 construct: reaction mixture (total volume 500 μl) contained: cellular homogenate (75 μg total protein); host or cells: SK-N-SH cell homogenate
T1 sequence (P09172 1-617): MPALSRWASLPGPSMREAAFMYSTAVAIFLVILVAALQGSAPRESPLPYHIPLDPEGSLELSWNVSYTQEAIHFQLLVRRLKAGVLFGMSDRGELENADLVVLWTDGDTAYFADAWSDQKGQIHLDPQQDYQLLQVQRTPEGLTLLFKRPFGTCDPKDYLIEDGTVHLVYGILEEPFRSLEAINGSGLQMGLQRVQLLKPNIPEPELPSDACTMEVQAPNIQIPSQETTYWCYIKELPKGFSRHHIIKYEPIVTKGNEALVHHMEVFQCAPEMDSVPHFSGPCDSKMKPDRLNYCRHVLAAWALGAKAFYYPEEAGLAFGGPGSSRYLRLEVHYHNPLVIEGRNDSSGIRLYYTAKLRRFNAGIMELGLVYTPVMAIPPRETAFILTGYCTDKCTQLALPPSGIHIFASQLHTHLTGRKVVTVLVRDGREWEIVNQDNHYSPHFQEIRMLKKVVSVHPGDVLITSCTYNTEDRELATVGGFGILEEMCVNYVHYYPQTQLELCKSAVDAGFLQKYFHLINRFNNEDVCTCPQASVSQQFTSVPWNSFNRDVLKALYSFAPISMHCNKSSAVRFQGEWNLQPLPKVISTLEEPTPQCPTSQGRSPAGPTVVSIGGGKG
Put plainly: DβH inhibition cell assay (SK-N-SH cellular homogenates, tyramine to octopamine). The format is biochemical. To be noted: for remaining activity at 0.1 µM: read-out: DβH activity in % of Ctrl (0.1 μM); for remaining activity at 1 µM: read-out: DβH activity in % of Ctrl (1 μM).

Another data set in a line: in vitro. The conditions noted are these: dog, MDCK, pH 7.4.
Data set [1] addresses T2, Dopamine beta hydroxylase (Homo sapiens, UniProt P09172).
T2 construct: Human plasma samples were obtained from healthy donors; tissue Instituto Portugues do Sangue Transplantacao, Porto; host or cells: human plasma from healthy donors
T2 sequence (P09172 40-617 limits assumed): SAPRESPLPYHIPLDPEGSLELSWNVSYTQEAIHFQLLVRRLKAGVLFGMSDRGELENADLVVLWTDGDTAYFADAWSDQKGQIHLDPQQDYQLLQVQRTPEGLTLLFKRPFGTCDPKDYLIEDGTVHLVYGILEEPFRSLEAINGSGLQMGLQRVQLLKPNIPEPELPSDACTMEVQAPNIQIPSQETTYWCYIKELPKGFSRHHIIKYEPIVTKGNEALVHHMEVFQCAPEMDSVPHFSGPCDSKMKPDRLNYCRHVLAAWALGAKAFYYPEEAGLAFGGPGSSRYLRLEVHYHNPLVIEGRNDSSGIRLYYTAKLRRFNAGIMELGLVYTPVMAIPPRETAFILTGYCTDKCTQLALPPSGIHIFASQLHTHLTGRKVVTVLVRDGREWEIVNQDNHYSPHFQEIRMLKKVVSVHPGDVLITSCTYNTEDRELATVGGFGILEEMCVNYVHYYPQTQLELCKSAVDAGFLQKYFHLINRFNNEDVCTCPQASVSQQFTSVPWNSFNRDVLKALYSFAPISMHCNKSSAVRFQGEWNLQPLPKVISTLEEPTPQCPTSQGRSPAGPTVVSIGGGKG
Nature of the data set: DβH activity in human plasma. The format is biochemical. The conditions noted are these: inhibitor 0.1 μM. The method, then: Furthermore, the ability of a compound to inhibit DβH activity may be assessed in human plasma using the following assay. […]. Dopamine beta hydroxylase activity in human plasma was measured by the method previously developed (Nagatsu, T. and Udenfriend, S. Photometric assay of dopamine-β-hydroxylase activity in human blood. Clin. Chem. 18(9) 980-983, 1972) with minor modifications. Catalase, N-ethylmaleimide, tyramine, disodium fumarate, pargyline, sodium acetate, ascorbic acid, copper sulfate and octopamine were obtained from Sigma Chemical Co., St. Louis, Mo. 63178. Human plasma samples were obtained from healthy donors (Instituto Portugues do Sangue Transplantacao, Centro Sangue Transplantacao, Porto, Portugal). From date of collection, plasma was stored at −80° C. until use. Test compounds were initially prepared in dimethyl sulfoxide at a concentration of 10 mM and diluted in dimethyl sulfoxide to the required concentrations. […] Absorbance was measured at […] in a 96-well plate by use of a SpectraMAX plus 384 (Molecular Devices) with software SOFTmax® PRO Software 5.3 spectrophotometer. Absorbance was linear with octopamine concentration from 0.5 to 20 μg/ml. Dopamine beta hydroxylase activity is determined as nmol of octopamine formed/ml of plasma/hour and effect of compounds is presented as % control. […]

The mark [2] stands for this setting: inhibitor 0.1 μM, SK-N-SH cell homogenate.
Where [3] appears, read: inhibitor 1 μM, SK-N-SH cell homogenate.

Like-named read-outs stand apart in the source and are kept apart here. Marks after values point to notes of the source that are not given here.

Broadly, the Papp A→B is how fast a substance crosses the layer from the apical side. Higher therefore signals fast passage. In the case of `Fc1ccc(F)c(C23CC2c2c[nH]c(=S)n2C3)c1` (centres unmarked) [Example 55, 5a-(2,5-difluorophenyl)-5,5a,6,6a-tetrahydrocyclopropa[3,4]pyrrolo[1,2-c]imidazole-3(2H)-thione], the remaining activity at 0.1 µM at DβH (setting [2]) worked out at 61%. On DβH (setting [3]), the remaining activity at 1 µM is 0.4%. In addition, the Papp A→B at 30 min, 50 μM in the data set “in vitro” was 79.4 ×10⁻⁶ cm/s.

For the compound `Fc1ccc(F)c([C@]23C[C@H]2c2c[nH]c(=S)n2C3)c1` [Example 56, (5aS,6aR)-5a-(2,5-difluorophenyl)-5,5a,6,6a-tetrahydrocyclopropa[3,4]pyrrolo[1,2-c]imidazole-3(2H)-thione], at DβH (setting [2]), the remaining activity at 0.1 µM was determined as 41.7%. Further, at DβH (setting [3]), the remaining activity at 1 µM is 7.8%. Also, in the data set “in vitro”, the Papp A→B at 30 min, 50 μM is 15.8 ×10⁻⁶ cm/s.

`Fc1ccc(F)c([C@@]23C[C@@H]2c2c[nH]c(=S)n2C3)c1` [Example 57, (5aR,6aS)-5a-(2,5-difluorophenyl)-5,5a,6,6a-tetrahydrocyclopropa[3,4]pyrrolo[1,2-c]imidazole-3(2H)-thione]: at DβH (setting [2]), the remaining activity at 0.1 µM came to 97.9%. In addition, at DβH (setting [3]), the remaining activity at 1 µM is 58.6%. The remaining activity at 10 µM on DβH (inhibitor 10 μM, SK-N-SH cell homogenate, read-out: DβH activity in % of Ctrl (10 μM)) came to 9.2%. Further, the Papp A→B at 30 min, 50 μM in the data set “in vitro” is 63.1 ×10⁻⁶ cm/s.

With `Fc1cc(F)cc([C@H]2Cc3c[nH]c(=S)n3C2)c1` [Example 58, (R)-6-(3,5-difluorophenyl)-6,7-dihydro-2H-pyrrolo[1,2-c]imidazole-3(5H)-thione], at DβH, the remaining activity at 0.1 µM came out at 106% and the remaining activity at 1 µM was 59.8%. Moreover, the Papp A→B at 30 min, 50 μM in the data set “in vitro” was 126 ×10⁻⁶ cm/s.

Turning to `Fc1cc(F)cc([C@@H]2Cc3c[nH]c(=S)n3C2)c1` [Example 59, (S)-6-(3,5-difluorophenyl)-6,7-dihydro-2H-pyrrolo[1,2-c]imidazole-3(5H)-thione], on DβH (setting [2]), the remaining activity at 0.1 µM came out at 100%. Besides, the remaining activity at 1 µM at DβH (setting [3]) was found to be 27.8%. Also, the Papp A→B at 30 min, 50 μM in “in vitro” is 251 ×10⁻⁶ cm/s.

Consider `Cc1[nH]c(=S)n2c1[C@@H]1C[C@]1(c1cc(Br)ccc1F)C2` [Example 122, (5aS,6aR)-5a-(5-bromo-2-fluorophenyl)-1-methyl-5,5a,6,6a-tetrahydrocyclopropa[3,4]pyrrolo[1,2-c]imidazole-3 (2H)-thione], for which the “DβH activity in % of control in human plasma assay (numbers in brackets)” value in data set [1] is “(9.8)* % of Ctrl”.

(Values after patent US10975083B2, “Blood-brain barrier-penetrant dopamine-β-hydroxylase inhibitors” (BIAL—PORTELA & Cᵃ, S.A., priority 2016, dated 2021).)
